Consider 17 compounds from the supplement of paper PMC4862054.

Holding throughout (experiment): normalised viability (% of control), CellTiter-Blue; higher = more viable cells (about 100 = DMSO control)
Common to all, as to details: incubation time: 72 h
A general note: Alamar Blue is a resazurin reagent that responds to reducing activity.

The test system of test [1] is HDQ-P1. On the procedure: (§1)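 DSRT, CellTiter-Blue viability, 72 h incubation. Signal is normalised to DMSO and benzethonium chloride controls. Value is the normalised response at dose 8.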
Test [2] deals with CAL-51. The method, then:
as §1

The subject of test [3] is CAL-85-1. The method, then: as §1
In test [4] the test system is MDA-MB-453. The method, then:
as §1

Test [5] relates to CAL-148. On the procedure: as §1
Test [6] concerns DU-4475. On the procedure:
as §1

Test [7] deals with HDQ-P1. On the procedure:
(§2)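 DSRT, CellTiter-Blue viability, 72 h incubation. Signal is normalised to DMSO and benzethonium chloride controls. Value is the normalised response at dose 6.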
This is another data set of the same source.

The subject of test [8] is CAL-51. The method, then: as §2
This is another data set of the same source.

Test [9] has as its system CAL-85-1. The method, then:
as §2
The source holds these as a separate data set.

In test [10] the test system is MDA-MB-453. On the procedure:
as §2
The source holds these as a separate data set.

For test [11], the system named is CAL-148. The method, then: as §2
This is another data set of the same source.

Test [12] concerns DU-4475. The method, then:
as §2
The source holds these as a separate data set.

In the case of `COc1cccc2cc(-c3nc([C@H]4CC[C@H](C(=O)O)CC4)n4ncnc(N)c34)[nH]c12` [OSI-027] (3000 nM), the normalised viability is 31.1% with HDQ-P1 [1]; 42.9% in the test on CAL-51 [2]; 32.9% with CAL-85-1 [3]; 19.9% in the test with MDA-MB-453 [4]; 46.4% in the test with CAL-148 [5]; 69.1% with DU-4475 [6].
For the compound `OC[C@H]1O[C@@H](n2cnc3c2N=CNC[C@H]3O)C[C@@H]1O` [Pentostatin] (300 nM), the normalised viability was 82.3% in the test on HDQ-P1 [7]; 94.3% with CAL-51 [8]; 97.8% in the test with CAL-85-1 [9]; 108% with MDA-MB-453 [10]; 111% in the test with CAL-148 [11]; 93.1% in the test with DU-4475 [12].
As to `OC[C@H]1O[C@@H](n2cnc3c2N=CNC[C@H]3O)C[C@@H]1O` [Pentostatin] (3000 nM), the normalised viability came out at 96.8% in the test with HDQ-P1 [1]; 95.8% in the test on CAL-51 [2]; 96.4% in the test with CAL-85-1 [3]; 96.8% in the test with MDA-MB-453 [4]; 112% in the test with CAL-148 [5]; 90.9% in the test on DU-4475 [6].
On to `N#CC[C@H](C1CCCC1)n1cc(-c2ncnc3[nH]ccc23)cn1` [Ruxolitinib] (300 nM), for which the normalised viability in the test on HDQ-P1 [7] came out at 73.3%; with CAL-51 [8], 86.7%; in the test on CAL-85-1 [9] it was 92%; with MDA-MB-453 [10], 78.4%; in the test on CAL-148 [11], 95.1%; in the test with DU-4475 [12] it was 114%.
Regarding `N#CC[C@H](C1CCCC1)n1cc(-c2ncnc3[nH]ccc23)cn1` [Ruxolitinib] (3000 nM), the normalised viability came to 105% with HDQ-P1 [1]; 105% with CAL-51 [2]; 114% in the test on CAL-85-1 [3]; 94% with MDA-MB-453 [4]; 87.7% in the test with CAL-148 [5]; 114% in the test on DU-4475 [6].
In the case of `C=CC[C@@H]1/C=C(\C)C[C@H](C)C[C@H](OC)[C@H]2O[C@@](O)(C(=O)C(=O)N3CCCC[C@H]3C(=O)O[C@H](/C(C)=C/[C@@H]3CC[C@@H](O)[C@H](OC)C3)[C@H](C)[C@@H](O)CC1=O)[C@H](C)C[C@@H]2OC` [Tacrolimus] (300 nM), the normalised viability was found to be 119% in the test with HDQ-P1 [7]; 103% in the test with CAL-51 [8]; 101% in the test on CAL-85-1 [9]; 111% in the test with MDA-MB-453 [10]; 106% in the test on CAL-148 [11]; 99.6% in the test with DU-4475 [12].
With `C=CC[C@@H]1/C=C(\C)C[C@H](C)C[C@H](OC)[C@H]2O[C@@](O)(C(=O)C(=O)N3CCCC[C@H]3C(=O)O[C@H](/C(C)=C/[C@@H]3CC[C@@H](O)[C@H](OC)C3)[C@H](C)[C@@H](O)CC1=O)[C@H](C)C[C@@H]2OC` [Tacrolimus] (3000 nM), the normalised viability with HDQ-P1 [1] was determined as 116%; in the test on CAL-51 [2] it was 99.2%; with CAL-85-1 [3], 100%; in the test with MDA-MB-453 [4] it was 102%; with CAL-148 [5] it was 99.2%; in the test on DU-4475 [6] it was 121%.
Regarding `C=CCNC1=C2C[C@@H](C)C[C@H](OC)[C@H](O)[C@@H](C)/C=C(\C)[C@H](OC(N)=O)[C@@H](OC)/C=C\C=C(/C)C(=O)NC(=CC1=O)C2=O` [Tanespimycin] (300 nM), the normalised viability in the test on HDQ-P1 [7] was found to be 28.8%; with CAL-51 [8] it was 48.2%; in the test on CAL-85-1 [9], 47.2%; in the test with MDA-MB-453 [10] it was 8.64%; with CAL-148 [11], 19.7%; with DU-4475 [12] it was 1.35%.
With `C=CCNC1=C2C[C@@H](C)C[C@H](OC)[C@H](O)[C@@H](C)/C=C(\C)[C@H](OC(N)=O)[C@@H](OC)/C=C\C=C(/C)C(=O)NC(=CC1=O)C2=O` [Tanespimycin] (3000 nM), the normalised viability is 24.7% in the test on HDQ-P1 [1]; 11.3% with CAL-51 [2]; 23% in the test with CAL-85-1 [3]; 8.29% with MDA-MB-453 [4]; 17.2% in the test on CAL-148 [5]; 0.57% in the test on DU-4475 [6].
Take `CO[C@H]1C[C@@H]2CC[C@@H](C)[C@@](O)(O2)C(=O)C(=O)N2CCCC[C@H]2C(=O)O[C@H]([C@H](C)C[C@@H]2CC[C@@H](OC(=O)C(C)(CO)CO)[C@H](OC)C2)CC(=O)[C@H](C)/C=C(\C)[C@@H](O)[C@@H](OC)C(=O)[C@H](C)C[C@H](C)/C=C/C=C/C=C/1C` [Temsirolimus] (30 nM): the normalised viability is 58.3% with HDQ-P1 [7]; 41.8% in the test on CAL-51 [8]; 56.3% in the test on CAL-85-1 [9]; 30.1% with MDA-MB-453 [10]; 40.4% with CAL-148 [11]; 54.4% in the test on DU-4475 [12].
For `CO[C@H]1C[C@@H]2CC[C@@H](C)[C@@](O)(O2)C(=O)C(=O)N2CCCC[C@H]2C(=O)O[C@H]([C@H](C)C[C@@H]2CC[C@@H](OC(=O)C(C)(CO)CO)[C@H](OC)C2)CC(=O)[C@H](C)/C=C(\C)[C@@H](O)[C@@H](OC)C(=O)[C@H](C)C[C@H](C)/C=C/C=C/C=C/1C` [Temsirolimus] (300 nM), the normalised viability with HDQ-P1 [1] is 69.1%; with CAL-51 [2] it was 37.2%; with CAL-85-1 [3], 57.4%; with MDA-MB-453 [4], 26.2%; with CAL-148 [5], 33.7%; in the test on DU-4475 [6], 50.3%.
For the compound `C[C@]1(c2nc3c(C(N)=O)cccc3[nH]2)CCCN1` [Veliparib] (300 nM), the normalised viability with HDQ-P1 [7] came out at 65.5%; in the test on CAL-51 [8] it was 105%; in the test on CAL-85-1 [9], 85.2%; in the test with MDA-MB-453 [10], 101%; in the test with CAL-148 [11] it was 100%; with DU-4475 [12], 89.9%.
`C[C@]1(c2nc3c(C(N)=O)cccc3[nH]2)CCCN1` [Veliparib] (3000 nM): the normalised viability in the test with HDQ-P1 [1] turned out to be 82.9%; in the test on CAL-51 [2] it was 108%; in the test on CAL-85-1 [3], 92.2%; with MDA-MB-453 [4], 109%; with CAL-148 [5] it was 91.8%; with DU-4475 [6], 86.2%.
In the case of `CC[C@]1(O)C[C@@H]2CN(CCc3c([nH]c4ccccc34)[C@@](C(=O)OC)(c3cc4c(cc3OC)N(C)[C@H]3[C@@](O)(C(=O)OC)[C@H](OC(C)=O)[C@]5(CC)C=CCN6CC[C@]43[C@@H]65)C2)C1` [Vinblastine] (30 nM), the normalised viability with HDQ-P1 [7] was 31.5%; with CAL-51 [8] it was 49.7%; in the test on CAL-85-1 [9], 36.2%; in the test on MDA-MB-453 [10], 29.1%; in the test with CAL-148 [11] it was 17.2%; with DU-4475 [12] it was 67.4%.
In the case of `CC[C@]1(O)C[C@@H]2CN(CCc3c([nH]c4ccccc34)[C@@](C(=O)OC)(c3cc4c(cc3OC)N(C)[C@H]3[C@@](O)(C(=O)OC)[C@H](OC(C)=O)[C@]5(CC)C=CCN6CC[C@]43[C@@H]65)C2)C1` [Vinblastine] (300 nM), the normalised viability in the test on HDQ-P1 [1] was found to be 33.5%; with CAL-51 [2], 16.9%; in the test on CAL-85-1 [3], 30.8%; in the test on MDA-MB-453 [4], 24.4%; in the test on CAL-148 [5], 17.7%; with DU-4475 [6], 20.9%.
`CS(=O)(=O)c1ccc(C(=O)Nc2ccc(Cl)c(-c3ccccn3)c2)c(Cl)c1` [Vismodegib] (300 nM): the normalised viability was 44% in the test on HDQ-P1 [7]; 106% in the test with CAL-51 [8]; 95.7% with CAL-85-1 [9]; 102% in the test with MDA-MB-453 [10]; 81.3% in the test with CAL-148 [11]; 102% in the test on DU-4475 [12].
As for `CS(=O)(=O)c1ccc(C(=O)Nc2ccc(Cl)c(-c3ccccn3)c2)c(Cl)c1` [Vismodegib] (3000 nM), the normalised viability is 103% in the test with HDQ-P1 [1]; 108% in the test with CAL-51 [2]; 96.4% with CAL-85-1 [3]; 95% with MDA-MB-453 [4]; 83.3% in the test on CAL-148 [5]; 112% with DU-4475 [6].
